Source: paper PMC5729604, “Dual inhibitors of hepatitis C virus and hepatocellular carcinoma: design, synthesis and docking studies” (Future Science OA, 2017)
Values after ≈ are worked out from the molar mass of the structure shown. Like-named read-outs stand apart in the source and are kept apart here.

Assays:
[1] = system: human HCC cell line HepG2; assay: cells; format: cell-based; conditions: for IC50: Homo sapiens, HepG2, 72 h, neutral red; for IC50 / (LD0) HepG2 / Safe doses (100% viability of HepG2) LD0: 72 h; for (LD0) HepG2 / Safe doses (100% viability of HepG2) LD0: human; for in vitro anticancer activity against HepG2, in words: IC50 <100 μg/ml potential, 100-1000 μg/ml moderate; for Selectivity index: LD50 on PBMC / IC50 on HepG2
[2] = system: human peripheral blood mononuclear cells (PBMCs); format: cell-based; conditions: 72 h
Description: The safe compounds on RBCs (5a-g, 5i-l, 5p-r, 5v-w, 6b-g) were subjected to the in vitro cytotoxicity assay on human peripheral blood mononuclear cells (PBMCs). Viability of cells was measured using neutral red uptake assay as described by Borenfreund and Puerner to determine the concentrations of each compound that were not cytotoxic. The results were interpreted to calculate both the lethal concentration that kills 50% of cells (LD50) and the maximum safe concentration that causes 100% viability (LD0) of each compound using GraphPad InStat 3.0 software (Figure 6 & Supplementary Table 3).
The PBMCs were isolated by density gradient centrifugation technique as described by Boyum. Blood samples were freshly collected into heparinized or ethylenediaminetetraacetic acid sterile tubes. Blood was diluted using equal volume of RPMI-1640 medium containing 25 mM HEPES and then layered over equal volume of Ficoll-Pague™ Plus (Fisher BioReagents™ Lymphocyte Separation Medium-LSM, PA, USA) and centrifuged (2000 r.p.m. for 30 min at acceleration and deceleration speeds zero & zero) at room temperature. The buffy mononuclear cell layer was collected using sterile Pasteur pipette into 50 ml sterile Falcon tube and washed twice in phosphate-buffered saline (Sigma-Aldrich) using centrifugation (1650 r.p.m. for 5 min). The isolated PBMCs viability was determined by hemocytometer count using the trypan blue exclusion method. The PBMCs were resuspended at 1 × 10^6 cells/ml in RPMI-1640 medium containing 25 mM HEPES supplemented with 10% heat-inactivated FBS. The appropriate number of cells was chosen to be 1 × 10^5 cells/well (100 μl of the prepared suspension).
A 2 mg/ml stock solution of each compound was prepared in DMF and filtered using a 0.2 μM syringe filter. The desired concentrations (20, 10, 5, 2.5 and 1.25 μg/ml) were prepared using serial dilution in a 96-well plate. Compound wells were prepared by adding 100 μl of the previously prepared concentrations to a suspension of 1 × 10^5 PBMCs in 100 μl culture media. Parallel concentrations of the solvent were prepared to be used as controls. Control wells were prepared by adding 100 μl culture media to a suspension of 1 × 10^5 PBMCs in 100 μl culture media. Blank wells contained 200 μl of culture media only (without cells or compound solution). Each set of samples was pipetted in duplicate. The plate was then gently shaken then incubated at 37°C, 5% CO2 for 72 h.
After incubation, neutral red assay was performed as described previously, and surviving cell fraction was calculated according to the previously mentioned equation. Also, the results were interpreted to calculate both the lethal concentration that kills 50% of cells (LD50) and the maximum safe concentration that cause 100% viability (LD0) of each compound using GraphPad InStat 3.0 software.

[3] = Supplementary Table 2, read-out: Anticancer (HepG2) IC50
[4] = Table 1, read-out: IC50 (HepG2)

SMILES	IC50 [1, 3]	(LD0) HepG2 [1]	Safe doses (100% viability of HepG2) LD0 [1]	(LD0) PBMCs [2]	LD0 [2]	LD50 [2]	IC50 [1, 4]	IC50 ([1]; read-out: IC50 against HepG2 cells)	in vitro anticancer activity against HepG2, in words [1]	Selectivity index [1]	LD50 (PBMCs) [2]
COc1ccc(-c2nn(-c3ccccc3)cc2C=C2SC(=NN=C(C)c3cc4ccccc4o3)N(c3ccc(OC)cc3)C2=O)cc1 [Compound 5i, 2-[1-(Benzofuran-2-yl)ethylidenehydrazono]-5-{[3-(4-methoxyphenyl)-1-phenyl-1H-pyrazol-4-yl]methylene}-3-(4-methoxyphenyl)thiazolidin-4-one]	120 µg/mL (≈ 188 µM)	0.05 µg/mL	0.05 µg/mL	7.60 µg/mL	7.60 µg/mL	25.35 µg/mL					
CC(=NN=C1SC(=Cc2cn(-c3ccccc3)nc2-c2ccccc2)C(=O)N1c1ccccc1)c1cc2ccccc2o1 [Compound 5a, 2-[1-(Benzofuran-2-yl)ethylidenehydrazono]-5-[(1,3-Diphenyl-1H-pyrazol-4-yl)methylene]-3-phenylthiazolidin-4-one]	173 µg/mL (≈ 298 µM)	10.15 µg/mL	10.15 µg/mL	11.17 µg/mL	11.17 µg/mL	13.99 µg/mL					
CC(=NN=C1SC(=C2C(=O)Nc3ccccc32)C(=O)N1C1CCCCC1)c1cc2ccccc2o1 [Compound 6d, 2-[1-(Benzofuran-2-yl)ethylidenehydrazono]-5-(2-oxoindolin-3-ylidene)-3-cyclohexylthiazolidin-4-one]		7.31 µg/mL	7.31 µg/mL	5.21 µg/mL	5.21 µg/mL	14.32 µg/mL	34.3 µg/mL (≈ 70.7 µM)	< 50 µg/mL	potential in vitro anticancer activity	0.42	14.32 µg/mL
CC(=NN=C1SC(=Cc2cn(-c3ccccc3)nc2-c2ccccc2)C(=O)N1C1CCCCC1)c1cc2ccccc2o1 [Compound 5j, 2-[1-(Benzofuran-2-yl)ethylidenehydrazono]-5-[(1,3-Diphenyl-1H-pyrazol-4-yl)methylene]-3-cyclohexylthiazolidin-4-one]		5.08 µg/mL	5.08 µg/mL	9.90 µg/mL	9.90 µg/mL	134.00 µg/mL	63.8 µg/mL (≈ 109 µM)		potential in vitro anticancer activity	2.10	134.00 µg/mL
CC(=NN=C1SC(=C2C(=O)Nc3ccccc32)C(=O)N1c1ccccc1)c1nc2ccccc2[nH]1 [Compound 6e, 2-[1-(1H-Benzimidazole-2-yl)ethylidenehydrazono]-5-(2-oxoindolin-3-ylidene)-3-phenylthiazolidin-4-one]	110 µg/mL (≈ 231 µM)	16.75 µg/mL	16.75 µg/mL	19.22 µg/mL	19.22 µg/mL	329.03 µg/mL					
COc1ccc(N2C(=O)C(=Cc3cn(-c4ccccc4)nc3-c3ccccc3)SC2=NN=C(C)c2cc3ccccc3o2)cc1 [Compound 5g, 2-[1-(Benzofuran-2-yl)ethylidenehydrazono]-5-[(1,3-Diphenyl-1H-pyrazol-4-yl)methylene]-3-(4-methoxyphenyl)thiazolidin-4-one]	193 µg/mL (≈ 316 µM)	66.72 µg/mL	66.72 µg/mL	8.88 µg/mL	8.88 µg/mL	39.01 µg/mL					
COc1ccc(-c2nn(-c3ccccc3)cc2C=C2SC(=NN=C(C)c3cc4ccccc4o3)N(C3CCCCC3)C2=O)cc1 [Compound 5l, 2-[1-(Benzofuran-2-yl)ethylidenehydrazono]-5-{[3-(4-methoxyphenyl)-1-phenyl-1H-pyrazol-4-yl]methylene}-3-cyclohexylthiazolidin-4-one]		5.11 µg/mL	5.11 µg/mL	8.33 µg/mL	8.33 µg/mL	46.89 µg/mL	82.1 µg/mL (≈ 133 µM)		potential in vitro anticancer activity	0.57	46.89 µg/mL
